According to PubChem BioAssay AID1645863 (Buhrlage Lab, Dana-Farber Cancer Institute and Novartis …, 2021):
pIC50: −log10 of the molar value. The source made the active and inactive calls. How the calls were made is not given here.

Target: Ubiquitin carboxyl-terminal hydrolase 10 (Homo sapiens) (UniProt Q14694)
Assay: primary hit verification, biochemical, ubiquitin-specific protease 10 deubiquitylase inhibitors, concentration-effect titration (AID 1645863);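 further: potency values describe inhibition of USP10 cleavage of a fluorogenic ubiquitin substrate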
Details: USP10 deubiquitinase enzymatic assay

Chain of Ubiquitin carboxyl-terminal hydrolase 10 (Homo sapiens) (Q14694 whole entry, looked up): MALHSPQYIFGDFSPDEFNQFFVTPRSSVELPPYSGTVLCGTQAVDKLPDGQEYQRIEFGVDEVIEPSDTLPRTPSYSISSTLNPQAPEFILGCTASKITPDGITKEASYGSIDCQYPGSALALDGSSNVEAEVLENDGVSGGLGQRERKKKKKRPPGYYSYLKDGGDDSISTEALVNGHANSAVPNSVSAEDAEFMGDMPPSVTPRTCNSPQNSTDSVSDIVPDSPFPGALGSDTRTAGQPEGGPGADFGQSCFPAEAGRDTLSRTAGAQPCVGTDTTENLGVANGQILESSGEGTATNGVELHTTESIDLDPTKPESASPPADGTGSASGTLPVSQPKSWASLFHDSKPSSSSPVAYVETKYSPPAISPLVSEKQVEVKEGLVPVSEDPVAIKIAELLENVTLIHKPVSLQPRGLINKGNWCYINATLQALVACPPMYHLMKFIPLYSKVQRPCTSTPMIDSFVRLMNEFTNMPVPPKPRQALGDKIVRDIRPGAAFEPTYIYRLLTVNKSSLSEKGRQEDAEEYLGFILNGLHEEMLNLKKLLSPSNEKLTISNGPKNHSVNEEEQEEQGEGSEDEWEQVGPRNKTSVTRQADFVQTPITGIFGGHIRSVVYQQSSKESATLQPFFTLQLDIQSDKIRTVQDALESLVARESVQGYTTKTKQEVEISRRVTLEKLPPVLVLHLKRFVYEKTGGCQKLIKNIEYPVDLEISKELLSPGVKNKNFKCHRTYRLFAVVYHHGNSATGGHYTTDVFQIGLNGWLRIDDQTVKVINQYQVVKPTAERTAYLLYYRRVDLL

Row | Structure (SMILES) | IC50 | pIC50
1 | COc1ccc(CNC(=O)CN2C(=O)CC(c3ccccc3)=Nc3ccccc32)cc1 | > 40 µM (inactive) | –
2 | O=C1CSC(c2ccc(F)cc2)c2c(n(C3CCCCCC3)[nH]c2=O)N1 (centres undefined) | – | 4.49
3 | Cc1ccc(NCc2cc3c(-c4cccc(F)c4)nn(-c4ccccc4)c3[nH]c2=O)cc1C | > 40 µM (inactive) | –
4 | CCOc1ccc2c(c1)c(=O)c(C(=O)c1ccc(C)cc1)cn2CC(=O)Nc1ccc(C)cc1 | > 40 µM (inactive) | –
5 | C=C[C@]1(C)CC[C@]2(C)[C@@H](C1)[C@@H](O)C[C@H]1[C@]3(C)CCC[C@@]12OC3=O | > 40 µM (inactive) | –
6 | O=C(Nc1ccccc1-c1nc2ccccc2[nH]1)c1sc2ccccc2c1Cl | – | 5.03
7 | Cn1nc(C(=O)N2CCC(c3ccccc3)C2)c2c1-c1ccsc1CC2 (centres undefined) | > 40 µM (inactive) | –
8 | CC(C)CC(NC(=O)c1ccc(Cl)cc1Cl)c1nc2ccccc2[nH]1 (centres undefined) | > 40 µM (inactive) | –
9 | COc1cccc(NC(=O)c2oc3ccccc3c2NC(=O)COc2cccc(OC)c2)c1 | > 40 µM (inactive) | –
10 | O=C(NCc1ccc(Br)cc1)c1cc(-c2cccnc2)n[nH]1 | > 40 µM (inactive) | –
11 | O=C(Nc1cccc2ccccc12)N1CCC(c2nc3c(nnn3Cc3ccc(F)cc3)c(=O)[nH]2)CC1 | > 40 µM (inactive) | –
12 | CCOc1ccc(-n2c(SCC(=O)Nc3ccc(C)cc3)nnc2-c2c[nH]c3ccccc23)cc1 | – | 5.05
13 | NS(=O)(=O)c1ccc(CNS(=O)(=O)/C=C/c2ccccc2)cc1 | > 40 µM (inactive) | –
14 | Cc1occ2c1C(=O)c1c(O)ccc(O)c1C2 | – | 5.32
15 | Cc1ccc(Cn2c(C(=O)O)c(CNCc3ccco3)c3ccccc32)cc1 | > 40 µM (inactive) | –
16 | FC(F)(F)c1ccc(Nc2nnnc3ccccc23)cc1 | – | 4.78
17 | CCCCCCCCCc1cc(OC(=O)c2c(CCCCCCCCC)cc(O)cc2O[C@@H]2O[C@H](CO)[C@@H](O)[C@H](O)[C@H]2O)cc(O)c1C(=O)O | – | 5.46
18 | Cc1cc(C(=O)NC2(O)C(=O)c3ccccc3C2=O)n(C)n1 | – | 4.85
19 | COc1ccc(-c2nc3c(c(=O)c4ccccc4n3C)c(=O)n2Cc2ccco2)cc1 | – | 4.54
20 | Cc1ccc(NC(=O)Nc2ccc(C)n(CC(=O)Nc3ccc(C)c(C)c3)c2=O)cc1 | – | 4.96

Row | Structure (SMILES) | IC50 | pIC50
21 | O=C(NC1(O)C(=O)c2ccccc2C1=O)c1cccc2c1-c1ccccc1C2=O | – | 4.99
22 | O=C(CN1CC=C(c2ccccc2)CC1)Nc1ccc(S(=O)(=O)N2CCOCC2)cc1 | > 40 µM (inactive) | –
23 | O=C(NCCc1nc2ccccc2n1Cc1ccccc1F)c1ccc(Cl)cc1 | – | 4.61
24 | Cc1cc(Nc2cccc(Cl)c2)n2nc(-c3cccnc3)nc2n1 | > 40 µM (inactive) | –
25 | CC(NC(=O)c1ccccc1)c1nc2ccccc2n1CC(=O)Nc1ccc2c(c1)OCO2 (centres undefined) | – | 4.94
26 | COc1cc(O)cc2c1C(=O)OC(C)CCCCCCC2 (centres undefined) | – | 4.53
27 | CCOC(=O)N1CCN(C(=O)c2ccc(CS(=O)c3ccccc3Cl)o2)CC1 (centres undefined) | > 40 µM (inactive) | –
28 | COc1ccc(C2(c3nnc(C(C)Oc4ccc(F)cc4)o3)CCOCC2)cc1 (centres undefined) | > 40 µM (inactive) | –
29 | COc1ccc(NC(=O)Cn2cc(C(=O)c3ccc(F)cc3)c(=O)c3cc(C)ccc32)cc1OC | > 40 µM (inactive) | –
30 | CC1=C(C)C(N(c2ccccc2)c2ccccc2)N(CCC(C)C)C1=O (centres undefined) | > 40 µM (inactive) | –
31 | N=C1/C(=C/c2cn(Cc3ccccc3)c3ccccc23)C(=O)N=C2SC(C(F)(F)F)=NN12 | > 40 µM (inactive) | –
32 | CCOC(=O)c1ccc(NC(=O)Cn2c(=O)n(-c3ccc(CC(=O)NCc4ccco4)cc3)c(=O)c3ccccc32)cc1 | > 40 µM (inactive) | –
33 | Nc1ncc(-c2ccc(F)cc2)c(C2CCCN(C(=O)c3ccn[nH]3)C2)n1 (centres undefined) | > 40 µM (inactive) | –
34 | CC1(C)Cc2c(c(-c3ccco3)nc3sc4c(SCCCc5ccccc5)ncnc4c23)CO1 | – | 4.54
35 | O=C(CCCC(=O)N(c1ccc2c(c1)OCCO2)C(C(=O)NC1CCCCC1)c1ccc(F)cc1)Nc1ccccn1 (centres undefined) | – | 4.56
36 | CCOCc1ccc(C(=O)N[C@H](C)c2nc3cc(-c4ccc(OC)cc4)ncn3n2)cc1 | > 40 µM (inactive) | –
37 | CCN(Cc1ccccc1)C(=O)Cn1ccc2ccn(C)c2c1=O | > 40 µM (inactive) | –
38 | Cc1ccc(CNC(=O)Cn2c(=O)n(CCCC(=O)NCc3ccc(F)cc3)c(=O)c3ccccc32)cc1 | – | 4.76
39 | CCc1ccc(NC(=O)c2cc(C(F)(F)F)n(C)n2)cc1 | > 40 µM (inactive) | –
40 | O=C(NCc1ccc2c(c1)OCO2)c1cn(-c2cccc(Cl)c2)nn1 | – | 4.48

Row | Structure (SMILES) | IC50 | pIC50
41 | CCC(=O)N1c2ccccc2NC2=C(C(=O)CC(c3ccccc3OCc3ccccc3)C2)C1c1ccccc1 (centres undefined) | – | 4.45
42 | COc1cccc(NC(=O)Cn2cc(C(=O)c3ccc(C)cc3)c(=O)c3cc(Cl)ccc32)c1 | – | 4.95
43 | O=C(c1ccc(Cl)cc1)N(c1ccccn1)C1CCCCC1 | > 40 µM (inactive) | –
44 | CCC(C)N1CNc2c(c(=O)[nH]c(=O)n2Cc2ccco2)C1 (centres undefined) | > 40 µM (inactive) | –
45 | COc1ccccc1-c1noc(CCCC(=O)Nc2ccccc2)n1 | > 40 µM (inactive) | –
46 | COc1cc(NC(=O)Cn2nc(-c3ccc(F)cc3)ccc2=O)ccc1-n1cnnn1 | > 40 µM (inactive) | –
47 | Cc1ccc2c(c1)c(=O)c(C(=O)c1ccccc1)cn2CC(=O)Nc1ccc2c(c1)OCO2 | > 40 µM (inactive) | –
48 | Cc1ccccc1-c1noc(-c2cccn(CC(=O)Nc3ccccc3F)c2=O)n1 | > 40 µM (inactive) | –
49 | CS(=O)(=O)c1ccc2nc(N(Cc3cccnc3)C(=O)c3ccc4ccccc4c3)sc2c1 | > 40 µM (inactive) | –
50 | O=C(Nc1cc(S(=O)(=O)Nc2ccc(Cl)cc2)ccc1O)c1cc2c(s1)CCC2 | – | 4.99
51 | COc1ccc(COc2ccc3c(C)c(CC(=O)N4CC[C@@]5(O)CCCC[C@H]5C4)c(=O)oc3c2)cc1 | > 40 µM (inactive) | –
52 | Cn1c(C(=O)NCc2ccccn2)cc2c(=O)[nH]c3ccccc3c21 | > 40 µM (inactive) | –
53 | COc1ccc(NC(=O)c2cc(-c3cccnc3)n[nH]2)cc1Cl | – | 4.54
54 | O=C(CCn1c(=O)c2sccc2n(Cc2ccc([N+](=O)[O-])cc2)c1=O)NCc1ccccc1 | > 40 µM (inactive) | –
55 | COc1cc(Cl)c(NC(=O)c2cc(-c3ccccn3)n[nH]2)c(OC)c1 | > 40 µM (inactive) | –
56 | O=C(Nc1ccc2c(c1)CCC2)C1Cc2ccccc2CN1C(=O)c1ccccc1 (centres undefined) | > 40 µM (inactive) | –
57 | CCCCCCCCC/C=C/C(=O)CCc1c(O)c(C=O)c2c(c1O)C(=O)OC2O (centres undefined) | – | 6.23
58 | COC(=O)Nc1cccn(Cc2c(Cl)cccc2Cl)c1=O | > 40 µM (inactive) | –
59 | Cc1ccc(-c2nn(C(C)(C)C)c3ncnc(NS(=O)(=O)c4ccc(Cl)cc4)c23)cc1 | > 40 µM (inactive) | –
